From US20060069132A1, “Azolecarboxamide herbicides” (priority 2004, published 2006)
Where two headings read alike, the source gives them in different places.

How the values were obtained:
[1] = system: barnyardgrass; assay: Test B pre-/postemergence herbicide test; format: in vivo, Echinochloa crus-galli; conditions: Echinochloa crus-galli; for pest or weed control at 125 g/ha: 125 g ai/ha; for pest or weed control at 500 g/ha: 500 g ai/ha
How it was run: (§1)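 Evaluation is visual, comparing treated with control plants on a scale where 0 means no effect and 100 means full control. Treatments were preemergence, or postemergence on seedlings 2–18 cm tall, and held 13–15 days in the greenhouse.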

[2] = system: rice; assay: Test B flooded paddy test; format: in vivo, Oryza sativa; conditions: Oryza sativa, 336 h, 1000 g ai/ha, visual rating, scale 0 to 100 (0 no effect, 100 complete control), 13 to 15 days, read-out: Rice plant response rating
How it was run: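 After treating 2-leaf paddy plants or 2–18 cm postemergence plants (1 to 4 leaves) with formulated chemical, researchers kept them in a greenhouse for 13–15 days. Effects were judged visually versus controls: 0 indicates none, 100 total control.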

[3] = system: Surinam grass; assay: Test B pre-/postemergence herbicide test; format: in vivo, Urochloa decumbens; conditions: Urochloa decumbens; for pest or weed control at 125 g/ha: 125 g ai/ha; for pest or weed control at 500 g/ha: 500 g ai/ha
How it was run: (§2)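 Flooded paddy rice and barnyardgrass were treated at the 2-leaf stage; upland plantings received compound either on sown seed or on 1- to 4-leaf seedlings. All were kept 13–15 days in a greenhouse and scored visually, 0–100, relative to untreated plants.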

[4] = system: cocklebur; assay: Test B pre-/postemergence herbicide test; format: in vivo, Xanthium strumarium; conditions: Xanthium strumarium; for pest or weed control at 125 g/ha: 125 g ai/ha; for pest or weed control at 500 g/ha: 500 g ai/ha
How it was run: as §1

[5] = system: giant foxtail; assay: Test B pre-/postemergence herbicide test; format: in vivo, Setaria faberi; conditions: Setaria faberi, 336 h; for pest or weed control at 125 g/ha: 125 g ai/ha; for pest or weed control at 500 g/ha: 500 g ai/ha
How it was run: as §2

[6] = system: lambsquarters; assay: Test B pre-/postemergence herbicide test; format: in vivo, Chenopodium album; conditions: Chenopodium album, 336 h; for pest or weed control at 125 g/ha: 125 g ai/ha; for pest or weed control at 500 g/ha: 500 g ai/ha
How it was run: as §2

[7] = system: large crabgrass; assay: Test B pre-/postemergence herbicide test; format: in vivo, Digitaria sanguinalis; conditions: Digitaria sanguinalis; for pest or weed control at 125 g/ha: 125 g ai/ha; for pest or weed control at 500 g/ha: 500 g ai/ha
How it was run: as §2

[8] = system: wheat; assay: Test B postemergence herbicide test; format: in vivo, Triticum aestivum; conditions: Triticum aestivum, post-emergence, 336 h, postemergence, visual rating, scale 0 (no effect) to 100 (complete control), read-out: Wheat plant response rating
How it was run: (§3)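 Scale 0–100: zero equals no visible effect, 100 complete control, judged by eye relative to controls. Timing: 13 to 15 days in greenhouse post-treatment. Growth stage at spraying: two leaves (paddy) or one to four leaves, 2–18 cm (postemergence).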

[9] = system: barnyardgrass; assay: Test B flooded paddy test; format: in vivo, Echinochloa crus-galli; conditions: Echinochloa crus-galli, 336 h, 1000 g ai/ha, visual rating, scale 0 to 100 (0 no effect, 100 complete control), 13 to 15 days, read-out: Barnyardgrass plant response rating
How it was run: (§4)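 Each value is a visual 0–100 response rating taken against controls 13 to 15 days after treatment in the greenhouse. Plants received formulated chemical postemergence at the 1- to 4-leaf stage or, in flooded paddy, at the 2-leaf stage.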

[10] = system: wild oat; assay: Test B postemergence herbicide test; format: in vivo, Avena fatua; conditions: Avena fatua, post-emergence, 336 h, postemergence, visual rating, scale 0 (no effect) to 100 (complete control), read-out: Oat, Wild plant response rating
How it was run: as §3

[11] = system: small flower umbrella sedge; assay: Test B flooded paddy test; format: in vivo, Cyperus difformis; conditions: Cyperus difformis, 336 h, 1000 g ai/ha, visual rating, scale 0 to 100 (0 no effect, 100 complete control), 13 to 15 days, read-out: Sedge, Umbrella plant response rating
How it was run: as §4

[12] = system: ducksalad; assay: Test B flooded paddy test; format: in vivo, Heteranthera limosa; conditions: Heteranthera limosa, 336 h, 1000 g ai/ha, visual rating, scale 0 to 100 (0 no effect, 100 complete control), 13 to 15 days, read-out: Ducksalad plant response rating
How it was run: as §4

[13] = system: pigweed; assay: Test B pre-/postemergence herbicide test; format: in vivo, Amaranthus retroflexus; conditions: Amaranthus retroflexus, 336 h; for pest or weed control at 125 g/ha: 125 g ai/ha; for pest or weed control at 500 g/ha: 500 g ai/ha
How it was run: as §2

[14] = system: blackgrass; assay: Test B postemergence herbicide test; format: in vivo, Alopecurus myosuroides; conditions: Alopecurus myosuroides, post-emergence, 336 h, postemergence, visual rating, scale 0 (no effect) to 100 (complete control), read-out: Blackgrass plant response rating
How it was run: as §4

[15] = system: morningglory; assay: Test B pre-/postemergence herbicide test; format: in vivo, Ipomoea coccinea; conditions: Ipomoea, 336 h; for pest or weed control at 125 g/ha: 125 g ai/ha; for pest or weed control at 500 g/ha: 500 g ai/ha
How it was run: as §1

[16] = system: corn; assay: Test B pre-/postemergence herbicide test; format: in vivo, Zea mays; conditions: Zea mays; for plant injury at 125 g/ha: 125 g ai/ha
How it was run: as §2

[17] = post-emergence, postemergence, visual rating, scale 0 (no effect) to 100 (complete control), read-out: Barnyardgrass plant response rating
[18] = post-emergence, postemergence, visual rating, scale 0 (no effect) to 100 (complete control), read-out: Surinam Grass plant response rating
[19] = post-emergence, postemergence, visual rating, scale 0 (no effect) to 100 (complete control), read-out: Cocklebur plant response rating
[20] = post-emergence, postemergence, visual rating, scale 0 (no effect) to 100 (complete control), read-out: Foxtail, Giant plant response rating
[21] = post-emergence, postemergence, visual rating, scale 0 (no effect) to 100 (complete control), read-out: Lambsquarters plant response rating
[22] = post-emergence, postemergence, visual rating, scale 0 (no effect) to 100 (complete control), read-out: Crabgrass, Large plant response rating
[23] = post-emergence, postemergence, visual rating, scale 0 (no effect) to 100 (complete control), read-out: Pigweed plant response rating
[24] = post-emergence, postemergence, visual rating, scale 0 (no effect) to 100 (complete control), read-out: Morningglory plant response rating

With `CCc1nn(C(C)(C)C)cc1C(=O)Nc1cccc(C(=O)N(CC)CC)c1` [Compound 182, N-[3-[(diethylamino)carbonyl]phenyl]-1-(1,1-dimethylethyl)-3-ethyl-1H-pyrazole-4-carboxamide] the pest or weed control at 125 g/ha [1, 17] was 30%, the pest or weed control at 500 g/ha [1, 17] was 50% and the pest or weed control at 125 g/ha ([1]; pre-emergence, 0 = no effect, 100 = complete control, read-out: Barnyardgrass plant response rating (0 to 100 scale)) was 20%. It also gave a pest or weed control at 500 g/ha ([1]; pre-emergence, visual rating 0-100, 0 no effect, 100 complete control, read-out: Plant response rating, Barnyardgrass) of 80%, a plant injury at 1000 g/ha [2] of 0% and a pest or weed control at 125 g/ha [3, 18] of 10%. The pest or weed control at 500 g/ha [3, 18] was 20%, the pest or weed control at 125 g/ha ([3]; pre-emergence, 0 = no effect, 100 = complete control, read-out: Surinam Grass plant response rating (0 to 100 scale)) was 20% and the pest or weed control at 500 g/ha ([3]; pre-emergence, visual rating 0-100, 0 no effect, 100 complete control, read-out: Plant response rating, Surinam Grass) was 60%. For the same molecule, the pest or weed control at 125 g/ha [4, 19] was 50%, the pest or weed control at 500 g/ha [4, 19] was 60% and the pest or weed control at 125 g/ha ([4]; pre-emergence, 0 = no effect, 100 = complete control, read-out: Cocklebur plant response rating (0 to 100 scale)) was 0%. It also gave a pest or weed control at 500 g/ha ([4]; pre-emergence, visual rating 0-100, 0 no effect, 100 complete control, read-out: Plant response rating, Cocklebur) of 0%, a pest or weed control at 125 g/ha [5, 20] of 0% and a pest or weed control at 500 g/ha [5, 20] of 20%. For the same molecule, the pest or weed control at 125 g/ha ([5]; pre-emergence, 0 = no effect, 100 = complete control, read-out: Foxtail, Giant plant response rating (0 to 100 scale)) was 30%, the pest or weed control at 500 g/ha ([5]; pre-emergence, visual rating 0-100, 0 no effect, 100 complete control, read-out: Plant response rating, Foxtail, Giant) was 100% and the pest or weed control at 125 g/ha [6, 21] was 60%. For the same molecule, the pest or weed control at 500 g/ha [6, 21] was 70%, the pest or weed control at 125 g/ha ([6]; pre-emergence, 0 = no effect, 100 = complete control, read-out: Lambsquarters plant response rating (0 to 100 scale)) was 20% and the pest or weed control at 500 g/ha ([6]; pre-emergence, visual rating 0-100, 0 no effect, 100 complete control, read-out: Plant response rating, Lambsquarters) was 100%. It also gave a pest or weed control at 125 g/ha [7, 22] of 20%, a pest or weed control at 500 g/ha [7, 22] of 30% and a pest or weed control at 125 g/ha ([7]; pre-emergence, 0 = no effect, 100 = complete control, read-out: Crabgrass, Large plant response rating (0 to 100 scale)) of 70%. It also gave a pest or weed control at 500 g/ha ([7]; pre-emergence, visual rating 0-100, 0 no effect, 100 complete control, read-out: Plant response rating, Crabgrass, Large) of 100%, a plant injury at 125 g/ha ([8]; 125 g ai/ha) of 0% and a plant injury at 500 g/ha ([8]; 500 g ai/ha) of 10%. It also gave a pest or weed control at 1000 g/ha [9] of 40%, a pest or weed control at 125 g/ha ([10]; 125 g ai/ha) of 20% and a pest or weed control at 500 g/ha ([10]; 500 g ai/ha) of 30%. The pest or weed control at 1000 g/ha [11] was 80%, the pest or weed control at 1000 g/ha [12] was 60% and the pest or weed control at 125 g/ha [13, 23] was 50%. The pest or weed control at 500 g/ha [13, 23] was 70%, the pest or weed control at 125 g/ha ([13]; pre-emergence, 0 = no effect, 100 = complete control, read-out: Pigweed plant response rating (0 to 100 scale)) was 100% and the pest or weed control at 500 g/ha ([13]; pre-emergence, visual rating 0-100, 0 no effect, 100 complete control, read-out: Plant response rating, Pigweed) was 100%. For the same molecule, the pest or weed control at 125 g/ha ([14]; 125 g ai/ha) was 0%, the pest or weed control at 500 g/ha ([14]; 500 g ai/ha) was 0% and the pest or weed control at 125 g/ha [15, 24] was 50%. The pest or weed control at 500 g/ha [15, 24] was 70%, the pest or weed control at 125 g/ha ([15]; pre-emergence, 0 = no effect, 100 = complete control, read-out: Morningglory plant response rating (0 to 100 scale)) was 10% and the pest or weed control at 500 g/ha ([15]; pre-emergence, visual rating 0-100, 0 no effect, 100 complete control, read-out: Plant response rating, Morningglory) was 30%. It also gave a plant injury at 125 g/ha ([16]; post-emergence, postemergence, visual rating, scale 0 (no effect) to 100 (complete control), read-out: Corn plant response rating) of 30%, a plant injury at 500 g/ha ([16]; post-emergence, postemergence, 500 g ai/ha, visual rating, scale 0 (no effect) to 100 (complete control), read-out: Corn plant response rating) of 30% and a plant injury at 125 g/ha ([16]; pre-emergence, 0 = no effect, 100 = complete control, read-out: Corn plant response rating (0 to 100 scale)) of 0%. It also gave a Corn plant response rating (crop injury, 0 = no effect, 100 = complete kill) at 500 g/ha ([16]; pre-emergence, 500 g ai/ha, visual rating 0-100, 0 no effect, 100 complete control) of 0%.
